IC50 data for six compounds are collected here from patent US9340590B2 (priority 2011, dated 2016).

Holding throughout (experiment): cell-based
The target of test [1] is hNav1.5 (Homo sapiens, UniProt Q14524).
Test [2] has as its target hNav1.3 (Homo sapiens, UniProt Q9NY46). To be noted: IonWorks Quattro, read-out: IWQ Use Nav1.3. In general terms: In patch-clamp work, channel activity is measured electrically.
Test [3] addresses hNav1.7 (Homo sapiens, UniProt Q15858). The test is classed as cell-based.
Where [4] appears, read: use-dependent protocol, hNav1.3.
Setting [5] is: IonWorks Quattro, Use, read-out: IWQ Use Nav1.5.
Where [6] appears, read: IonWorks Quattro, Use, read-out: IWQ Use Nav1.7.

Read-outs that look alike come from different tables or passages of the source. Positions of bridges follow the written chain, without caps; N, C: chain ends. Residues, ends and D or L forms follow the SMILES beside them.

Sequence of hNav1.3 (Q9NY46 whole entry, looked up): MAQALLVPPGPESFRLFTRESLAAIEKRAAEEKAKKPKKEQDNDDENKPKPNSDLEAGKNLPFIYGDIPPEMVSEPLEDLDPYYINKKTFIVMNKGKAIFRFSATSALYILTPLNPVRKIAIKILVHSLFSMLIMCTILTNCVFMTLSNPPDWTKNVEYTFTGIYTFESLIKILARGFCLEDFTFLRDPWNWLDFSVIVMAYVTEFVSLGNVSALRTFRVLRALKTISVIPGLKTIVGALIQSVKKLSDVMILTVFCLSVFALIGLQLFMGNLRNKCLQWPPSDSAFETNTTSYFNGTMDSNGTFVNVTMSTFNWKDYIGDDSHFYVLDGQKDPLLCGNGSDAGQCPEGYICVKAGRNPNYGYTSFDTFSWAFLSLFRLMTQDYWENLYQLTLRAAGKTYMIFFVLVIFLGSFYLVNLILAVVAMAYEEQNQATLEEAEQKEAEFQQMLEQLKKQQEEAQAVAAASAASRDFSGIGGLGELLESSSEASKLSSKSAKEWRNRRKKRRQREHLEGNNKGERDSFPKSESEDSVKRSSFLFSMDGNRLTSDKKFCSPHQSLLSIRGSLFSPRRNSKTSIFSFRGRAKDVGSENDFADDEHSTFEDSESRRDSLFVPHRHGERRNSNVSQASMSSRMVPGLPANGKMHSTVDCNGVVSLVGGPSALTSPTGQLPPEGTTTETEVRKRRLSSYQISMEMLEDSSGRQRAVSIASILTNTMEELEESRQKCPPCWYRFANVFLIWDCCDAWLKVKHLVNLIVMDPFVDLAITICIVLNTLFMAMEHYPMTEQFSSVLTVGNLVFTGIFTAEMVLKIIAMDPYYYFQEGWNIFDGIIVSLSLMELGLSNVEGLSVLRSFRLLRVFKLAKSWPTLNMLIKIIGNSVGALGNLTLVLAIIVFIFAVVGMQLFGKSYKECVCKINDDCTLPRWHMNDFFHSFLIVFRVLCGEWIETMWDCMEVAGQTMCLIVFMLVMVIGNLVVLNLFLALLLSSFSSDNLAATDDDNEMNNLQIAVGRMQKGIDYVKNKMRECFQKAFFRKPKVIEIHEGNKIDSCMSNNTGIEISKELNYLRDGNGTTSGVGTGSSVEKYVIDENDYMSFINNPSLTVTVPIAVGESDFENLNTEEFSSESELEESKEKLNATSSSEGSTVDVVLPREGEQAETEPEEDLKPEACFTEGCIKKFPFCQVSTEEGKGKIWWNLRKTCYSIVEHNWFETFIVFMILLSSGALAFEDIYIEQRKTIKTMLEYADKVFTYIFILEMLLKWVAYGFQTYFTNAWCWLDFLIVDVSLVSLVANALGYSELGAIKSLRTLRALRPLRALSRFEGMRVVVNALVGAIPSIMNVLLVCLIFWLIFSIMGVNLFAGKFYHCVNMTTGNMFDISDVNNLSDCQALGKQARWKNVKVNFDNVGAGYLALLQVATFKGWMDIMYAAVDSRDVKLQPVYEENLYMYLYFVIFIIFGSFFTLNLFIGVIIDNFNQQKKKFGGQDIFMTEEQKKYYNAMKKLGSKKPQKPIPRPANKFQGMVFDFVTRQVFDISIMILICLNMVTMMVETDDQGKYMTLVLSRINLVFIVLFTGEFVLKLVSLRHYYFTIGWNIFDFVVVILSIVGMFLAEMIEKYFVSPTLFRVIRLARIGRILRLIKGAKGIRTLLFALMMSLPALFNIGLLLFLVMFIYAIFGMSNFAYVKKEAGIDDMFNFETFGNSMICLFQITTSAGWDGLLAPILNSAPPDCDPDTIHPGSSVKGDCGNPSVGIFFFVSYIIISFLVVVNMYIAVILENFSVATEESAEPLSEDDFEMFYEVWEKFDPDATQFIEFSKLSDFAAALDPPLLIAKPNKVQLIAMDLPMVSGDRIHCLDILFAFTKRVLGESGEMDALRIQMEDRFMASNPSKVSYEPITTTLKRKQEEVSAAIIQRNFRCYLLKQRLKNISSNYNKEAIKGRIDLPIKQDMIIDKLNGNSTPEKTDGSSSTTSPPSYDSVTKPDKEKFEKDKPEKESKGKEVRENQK
Sequence of hNav1.7 (Q15858 whole entry, looked up): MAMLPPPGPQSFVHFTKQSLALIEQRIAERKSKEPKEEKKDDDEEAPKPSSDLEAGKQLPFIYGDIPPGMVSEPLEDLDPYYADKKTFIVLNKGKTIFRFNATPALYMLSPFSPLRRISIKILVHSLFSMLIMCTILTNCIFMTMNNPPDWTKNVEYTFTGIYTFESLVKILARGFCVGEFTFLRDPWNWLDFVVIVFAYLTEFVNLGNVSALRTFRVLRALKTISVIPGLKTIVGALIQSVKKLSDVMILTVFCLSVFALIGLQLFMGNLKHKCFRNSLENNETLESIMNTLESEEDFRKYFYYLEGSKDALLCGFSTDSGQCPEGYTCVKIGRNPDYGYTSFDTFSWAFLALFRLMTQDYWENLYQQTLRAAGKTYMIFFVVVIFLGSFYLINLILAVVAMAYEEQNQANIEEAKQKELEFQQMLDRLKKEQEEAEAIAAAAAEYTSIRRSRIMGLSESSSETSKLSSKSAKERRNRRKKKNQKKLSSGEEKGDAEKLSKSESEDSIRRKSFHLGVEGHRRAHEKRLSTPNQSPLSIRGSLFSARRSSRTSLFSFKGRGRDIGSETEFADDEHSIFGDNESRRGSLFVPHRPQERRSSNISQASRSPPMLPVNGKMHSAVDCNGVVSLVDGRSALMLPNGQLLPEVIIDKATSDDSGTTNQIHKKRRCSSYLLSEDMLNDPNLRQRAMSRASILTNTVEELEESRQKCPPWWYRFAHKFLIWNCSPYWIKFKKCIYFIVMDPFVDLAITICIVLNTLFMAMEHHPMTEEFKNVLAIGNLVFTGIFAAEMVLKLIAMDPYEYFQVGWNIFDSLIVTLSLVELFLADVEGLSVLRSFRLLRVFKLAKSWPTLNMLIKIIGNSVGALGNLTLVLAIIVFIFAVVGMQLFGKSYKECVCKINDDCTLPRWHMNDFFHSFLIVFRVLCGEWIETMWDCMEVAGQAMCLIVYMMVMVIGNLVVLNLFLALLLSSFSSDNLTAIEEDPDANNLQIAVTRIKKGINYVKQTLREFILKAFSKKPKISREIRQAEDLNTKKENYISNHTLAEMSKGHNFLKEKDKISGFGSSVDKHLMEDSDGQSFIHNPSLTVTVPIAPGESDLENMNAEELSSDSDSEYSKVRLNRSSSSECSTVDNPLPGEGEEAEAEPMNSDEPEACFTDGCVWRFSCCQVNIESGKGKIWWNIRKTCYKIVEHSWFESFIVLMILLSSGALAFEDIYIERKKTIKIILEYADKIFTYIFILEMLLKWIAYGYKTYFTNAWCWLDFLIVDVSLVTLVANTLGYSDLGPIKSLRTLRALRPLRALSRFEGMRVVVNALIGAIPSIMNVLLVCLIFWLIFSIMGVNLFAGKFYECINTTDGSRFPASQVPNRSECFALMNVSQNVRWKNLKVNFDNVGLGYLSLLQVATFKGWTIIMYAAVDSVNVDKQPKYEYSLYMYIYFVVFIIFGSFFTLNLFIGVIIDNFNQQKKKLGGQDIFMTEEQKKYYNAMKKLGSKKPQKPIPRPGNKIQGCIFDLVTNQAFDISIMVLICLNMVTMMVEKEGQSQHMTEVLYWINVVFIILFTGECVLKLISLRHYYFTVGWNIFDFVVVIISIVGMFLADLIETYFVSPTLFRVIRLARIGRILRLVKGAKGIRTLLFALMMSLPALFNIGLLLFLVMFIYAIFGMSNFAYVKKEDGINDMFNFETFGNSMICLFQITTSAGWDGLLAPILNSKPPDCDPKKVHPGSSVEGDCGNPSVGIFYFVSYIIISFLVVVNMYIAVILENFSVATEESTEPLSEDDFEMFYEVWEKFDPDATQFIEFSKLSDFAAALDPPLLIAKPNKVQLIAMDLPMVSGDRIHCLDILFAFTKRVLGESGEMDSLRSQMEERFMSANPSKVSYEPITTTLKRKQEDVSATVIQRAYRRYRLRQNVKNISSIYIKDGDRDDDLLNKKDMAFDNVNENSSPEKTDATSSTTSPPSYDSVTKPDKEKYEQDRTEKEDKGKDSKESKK

With `CC[C@H](C)[C@@H]1NC(=O)[C@@H]2CSSC[C@@H]3NC(=O)[C@H](C(C)C)NC(=O)[C@H](CC(C)C)NC(=O)[C@H](CC(N)=O)NC(=O)[C@@H]4CCCN4C(=O)[C@H](CCCNC(=N)N)NC(=O)[C@H](CSSC[C@H](NC(=O)[C@@H](N)CC(=O)O)C(=O)N[C@@H](CC(C)C)C(=O)NCC(=O)N[C@@H](Cc4ccccc4Cl)C(=O)N[C@@H](CC(C)C)C(=O)N[C@@H](CCCNC(=N)N)C(=O)N[C@@H](CCCCN)C(=O)N2)NC(=O)[C@H](CSSC[C@@H](C(=O)N[C@@H](CCCCN)C(=O)N[C@@H](Cc2ccc(O)cc2)C(=O)N[C@H](C(=O)N[C@@H](Cc2ccccc2)C(N)=O)C(C)C)NC(=O)[C@H](Cc2c[nH]c4ccccc24)NC(=O)[C@H](CCCCN)NC(=O)[C@H](Cc2c[nH]cn2)NC(=O)[C@H]([C@@H](C)O)NC(=O)[C@H](CCCNC(=N)N)NC(=O)[C@H](CO)NC3=O)NC(=O)[C@H](CCCCN)NC(=O)[C@H](CC(=O)O)NC(=O)[C@H](CC(N)=O)NC(=O)[C@H](CC(=O)O)NC(=O)[C@@H]2CCCN2C1=O` [compound 675], the IC50 in test [1] (IonWorks Quattro, use-dependent protocol, hNav1.5, read-out: IWQ Use Nav1.5) is above 5 µM; in test [2] (setting [4]) it was 0.072 µM; in test [3] (IonWorks Quattro, use-dependent protocol, hNav1.7, read-out: IWQ Use Nav1.7), 0.066 µM.
`CC[C@H](C)[C@@H]1NC(=O)[C@@H]2CSSC[C@@H]3NC(=O)[C@H](C(C)C)NC(=O)[C@H](CC(C)C)NC(=O)[C@H](CC(N)=O)NC(=O)[C@@H]4CCCN4C(=O)[C@H](CCCNC(=N)N)NC(=O)[C@H](CSSC[C@H](NC(=O)[C@@H](N)CC(=O)O)C(=O)N[C@@H](CC(C)C)C(=O)NCC(=O)N[C@@H](Cc4ccccc4)C(=O)N[C@@H](CCSC)C(=O)N[C@@H](CCCNC(=N)N)C(=O)N[C@@H](CCCCN)C(=O)N2)NC(=O)[C@H](CSSC[C@@H](C(=O)N[C@@H](CCCCN)C(=O)N[C@@H](Cc2ccc(O)cc2)C(=O)N[C@H](C(=O)N[C@@H](Cc2ccccc2)C(N)=O)C(C)C)NC(=O)[C@H](Cc2c[nH]c4ccccc24)NC(=O)[C@H](CCCCN)NC(=O)[C@H](Cc2cnc[nH]2)NC(=O)[C@H]([C@@H](C)O)NC(=O)[C@H](CCCNC(=N)N)NC(=O)[C@H](CO)NC3=O)NC(=O)[C@H](CCCCN)NC(=O)[C@H](CC(=O)O)NC(=O)[C@H](CCCNC(=N)N)NC(=O)[C@H](CC(=O)O)NC(=O)[C@@H]2CCCN2C1=O` [compound 103] (H-DCLGFMRKCIPDRDKCCRPNLVCSRTHKWCKYVF-NH2; disulfide 2-17, 9-23, 16-30): the values for the IC50 in test [1] (setting [5]), in test [2] (Use) and in test [3] (setting [6]) were 16 µM, 0.22 µM and 0.16 µM, respectively.
On the same counts, the results for `CC[C@H](C)[C@@H]1NC(=O)[C@@H]2CSSC[C@@H]3NC(=O)[C@@H]4CCCN4C(=O)[C@H](CC(C)C)NC(=O)[C@H](CC(N)=O)NC(=O)[C@@H]4CCCN4C(=O)[C@H](CCCNC(=N)N)NC(=O)[C@H](CSSC[C@H](NC(=O)[C@@H](N)CC(=O)O)C(=O)N[C@@H](CC(C)C)C(=O)NCC(=O)N[C@@H](Cc4ccccc4)C(=O)N[C@@H](CCSC)C(=O)N[C@@H](CCCNC(=N)N)C(=O)N[C@@H](CCCCN)C(=O)N2)NC(=O)[C@H](CSSC[C@@H](C(=O)N[C@@H](CCCCN)C(=O)N[C@@H](Cc2ccc(O)cc2)C(=O)N[C@H](C(=O)N[C@@H](Cc2ccccc2)C(N)=O)C(C)C)NC(=O)[C@H](Cc2c[nH]c4ccccc24)NC(=O)[C@H](CCCCN)NC(=O)[C@H](Cc2c[nH]cn2)NC(=O)[C@H]([C@@H](C)O)NC(=O)[C@H](CCCNC(=N)N)NC(=O)[C@H](CO)NC3=O)NC(=O)[C@H](CCCCN)NC(=O)[C@H](CC(=O)O)NC(=O)[C@H](CC(N)=O)NC(=O)[C@H](CC(=O)O)NC(=O)[C@@H]2CCCN2C1=O` [compound 320] (H-DCLGFMRKCIPDNDKCCRPNLPCSRTHKWCKYVF-NH2; disulfide 2-17, 9-23, 16-30) are above 5 µM, above 5 µM and above 5 µM.
`CC[C@H](C)[C@@H]1NC(=O)[C@@H]2CSSC[C@@H]3NC(=O)[C@H](C(C)C)NC(=O)[C@H](CC(C)C)NC(=O)[C@H](CC(N)=O)NC(=O)[C@@H]4CCCN4C(=O)[C@H](CCCNC(=N)N)NC(=O)[C@H](CSSC[C@H](NC(=O)[C@@H](N)CC(=O)O)C(=O)N[C@@H](CC(C)C)C(=O)NCC(=O)N[C@@H](Cc4ccccc4)C(=O)N[C@@H](CCSC)C(=O)N[C@@H](CCCNC(=N)N)C(=O)N[C@@H](CCCCN)C(=O)N2)NC(=O)[C@H](CSSC[C@@H](C(=O)N[C@@H](CCCCN)C(=O)N[C@@H](Cc2ccc(O)cc2)C(=O)N[C@H](C(=O)N[C@@H](Cc2ccccc2)C(=O)N[C@@H](Cc2ccccn2)C(N)=O)C(C)C)NC(=O)[C@H](Cc2c[nH]c4ccccc24)NC(=O)[C@H](CCCCN)NC(=O)[C@H](Cc2c[nH]cn2)NC(=O)[C@H]([C@@H](C)O)NC(=O)[C@H](CCCNC(=N)N)NC(=O)[C@H](CO)NC3=O)NC(=O)[C@H](CCCCN)NC(=O)[C@H](CC(=O)O)NC(=O)[C@H](CC(N)=O)NC(=O)[C@H](CC(=O)O)NC(=O)[C@@H]2CCCN2C1=O` [compound 414]: the IC50 in test [1] (IonWorks Quattro, use-dependent, […], read-out: IWQ Use Nav1.5) turned out to be 9.29 µM; in test [2] (use-dependent, […]), 0.63 µM; in test [3] (IonWorks Quattro, use-dependent, […], read-out: IWQ Use Nav1.7 (μm)), 0.26 µM.
With `CC[C@H](C)[C@@H]1NC(=O)[C@@H]2CSSC[C@@H]3NC(=O)[C@H](C(C)C)NC(=O)[C@H](CC(C)C)NC(=O)[C@H](CC(N)=O)NC(=O)[C@@H]4CCCN4C(=O)[C@H](CCCNC(=N)N)NC(=O)[C@H](CSSC[C@H](NC(=O)[C@@H](N)CC(=O)O)C(=O)N[C@@H](CC(C)C)C(=O)NCC(=O)N(C)[C@@H](CC(C)C)C(=O)N[C@@H](CCSC)C(=O)N[C@@H](CCCNC(=N)N)C(=O)N[C@@H](CCCCN)C(=O)N2)NC(=O)[C@H](CSSC[C@@H](C(=O)N[C@@H](CCCCN)C(=O)N[C@@H](Cc2ccc(O)cc2)C(=O)N[C@H](C(=O)N[C@@H](Cc2ccccc2)C(N)=O)C(C)C)NC(=O)[C@H](Cc2c[nH]c4ccccc24)NC(=O)[C@H](CCCCN)NC(=O)[C@H](Cc2cnc[nH]2)NC(=O)[C@H]([C@@H](C)O)NC(=O)[C@H](CCCNC(=N)N)NC(=O)[C@H](CO)NC3=O)NC(=O)[C@H](CCCCN)NC(=O)[C@H](CC(=O)O)NC(=O)[C@H](CC(N)=O)NC(=O)[C@H](CC(=O)O)NC(=O)[C@@H]2CCCN2C1=O` [compound 688], the IC50 was above 5 µM in test [1] (IWQ Use Nav1.5), 0.73 µM in test [2] (setting [4]) and 0.29 µM in test [3].
Turning to `CC[C@H](C)[C@@H]1NC(=O)[C@@H]2CSSC[C@@H]3NC(=O)[C@H](C(C)C)NC(=O)[C@H](CC(C)C)NC(=O)[C@H](CC(N)=O)NC(=O)[C@H](CO)NC(=O)[C@H](CO)NC(=O)[C@H](CCCNC(=N)N)NC(=O)[C@H](CSSC[C@H](NC(=O)[C@@H](N)CC(=O)O)C(=O)N[C@@H](CC(C)C)C(=O)NCC(=O)N[C@@H](Cc4ccccc4)C(=O)N[C@@H](CCSC)C(=O)N[C@@H](CCCNC(=N)N)C(=O)N[C@@H](CCCCN)C(=O)N2)NC(=O)[C@H](CSSC[C@@H](C(=O)N[C@@H](CCCCN)C(=O)N[C@@H](Cc2ccc(O)cc2)C(=O)N[C@H](C(=O)N[C@@H](Cc2ccccc2)C(N)=O)C(C)C)NC(=O)[C@H](Cc2c[nH]c4ccccc24)NC(=O)[C@H](CCCCN)NC(=O)[C@H](Cc2c[nH]cn2)NC(=O)[C@H]([C@@H](C)O)NC(=O)[C@H](CCCNC(=N)N)NC(=O)[C@H](CO)NC3=O)NC(=O)[C@H](CCCCN)NC(=O)[C@H](CC(=O)O)NC(=O)[C@H](CC(N)=O)NC(=O)[C@H](CC(=O)O)NC(=O)[C@@H]2CCCN2C1=O` [SEQ ID NO: 93, [Ser-Ser19]GpTx-1] (H-DCLGFMRKCIPDNDKCCRSSNLVCSRTHKWCKYVF-NH2; disulfide 2-17, 9-24, 16-31), the IC50 stood at 13.9 µM in test [1] (setting [5]), 0.32 µM in test [2] (Use) and 0.27 µM in test [3] (setting [6]).
